Reference: paper PMC5486975 (European journal of medicinal chemistry, 2017)

What was measured:
[1] = tested on: PWR-1E non-neoplastic human prostate epithelial cells; assay: WST-1 cell proliferation assay, PWR-1E; format: cell-based
[2] = tested on: LNCaP human androgen-sensitive prostate cancer cell line; assay: WST-1 cell proliferation assay, LNCaP; format: cell-based
[3] = tested on: DU145 human androgen-insensitive prostate cancer cell line; assay: WST-1 cell proliferation assay, DU145; format: cell-based
[4] = tested on: PC-3 human androgen-insensitive prostate cancer cell line; assay: WST-1 cell proliferation assay, PC-3; format: cell-based
[5] = tested on: PC-3 cells; conditions: cited from earlier work
[6] = fold potency relative to curcumin

IC50 ([2]; Homo sapiens, LNCaP, 72 h, read-out: IC50 (μM) LNCaP): 13.6 ± 2.69 µM
IC50(curcumin)/IC50(trienone) LNCaP [2, 6]: 1
IC50 ([3]; Homo sapiens, DU-145, 72 h, read-out: IC50 (μM) DU145): 26.2 ± 0.65 µM
IC50(curcumin)/IC50(trienone) DU145 [3, 6]: 1
IC50 ([4]; Homo sapiens, 72 h, read-out: IC50 (μM) PC-3): 25.4 ± 2.15 µM
IC50(curcumin)/IC50(trienone) PC-3 [4, 6]: 1
Compound: COc1cc(/C=C/C(=O)CC(=O)/C=C/c2ccc(O)c(OC)c2)ccc1O [Curcumin]
IC50 ([1]; Homo sapiens, PWR-1E, 72 h, read-out: IC50 (μM) PWR-1E): 8.14 to 9.54 µM
IC50(curcumin)/IC50(trienone) PWR-1E [1, 6]: 1
effect on PC-3 cell cycle progression [5]: arresting the G1/S phase
